Each structure is given as a SMILES string.

Here are results for 95 molecules from ChEMBL document CHEMBL3507680, “University of Dundee, Gates Library screen for HepG2 cell viability”.

This data set in a line: Human HepG2 cell viability assay in 384 well format. The format is toxicity, cell-based. Also on record: dose 125 nL, time 70.5 hour; cytotoxicity at 70.5 h: concentration not given beside the values. To be noted: HepG2 cells, read-out: Inhibition.
Take `CC(C)Oc1cccc(C(=O)C2CCCN(C(=O)c3ccoc3)C2)c1` (stereo not given): the cytotoxicity at 70.5 h was -9.57%. Next, `Cn1cc(C2COC3(CCN(C(=O)c4ccsc4)CC3)C2)cn1` (stereo not given): -15.9%; `CS(=O)(=O)NCc1nnc2n1CCN(Cc1cccnc1)C2`: 18.3%. As for `Cc1nc(C(=O)N2CC[C@@]3(C[C@@H](NS(C)(=O)=O)CCO3)C2)cs1`, the cytotoxicity at 70.5 h was -5.85%. In the case of `CN1C[C@H]2C[C@H](C(=O)Nc3cccnc3)[C@@H](C1)O2`, the cytotoxicity at 70.5 h was -11.1%. For `c1cncc(CN2CCCC3(COCCN(c4cncnc4)C3)C2)c1` (stereo not given), the cytotoxicity at 70.5 h is -6.01%.

Consider `O=C(c1ccncc1)N1C[C@@H]2OCCN(CCN3CCCC3)[C@@H]2C1`, for which the cytotoxicity at 70.5 h is -4.2%. With `Cc1ncoc1C(=O)N1CC[C@@]2(C[C@H](NS(C)(=O)=O)CCO2)C1`, the cytotoxicity at 70.5 h was -7.59%. The figure for `Cc1cc(C(=O)N2CC[C@@]3(C[C@@H](NS(C)(=O)=O)CCO3)C2)no1` is -4.95%. As to `O=S(=O)(c1ccccc1)N1CCC2(CCCN2Cc2cccc(F)c2)C1` (stereo not given), the cytotoxicity at 70.5 h came to 6.89%. The figure for `CC1=N[C@@]2(CC[C@@H]3CN(S(=O)(=O)CC(C)C)C[C@@H]32)C(=O)N1CC1CC1` is 8.18%; for `CS(=O)(=O)N[C@@H]1CCN(Cc2ccncc2)[C@H]1Cc1cccnc1` it is -12.8%. The figure for `CS(=O)(=O)N[C@@H]1CCN(Cc2cccs2)[C@H]1Cc1cccnc1` is -18.1%; for `COCC(=O)N1CC[C@H]2C[C@H](c3nc(C)no3)O[C@@H]2C1` it is -7.44%. Next, `Cn1cc2c(n1)C(COCC1CC1)CN(Cc1ccsc1)C2` (stereo not given): -3.4%; `CC(C)N(C)Cc1cnc2n1CCN(C(=O)c1cccs1)C2`: -15.9%.

As for `Cc1nc(CN2Cc3cn(C)nc3C(COCC3CC3)C2)cs1` (stereo not given), the cytotoxicity at 70.5 h was 14.1%. The figure for `CN1CCN(Cc2cnc3n2CCN(C(=O)N2CCCC2)C3)CC1` is -14.4%. Regarding `CCCNC(=O)c1nc2c(o1)CN(C(C)=O)C2`, the cytotoxicity at 70.5 h is -9.4%. On to `Cn1ccc(C(=O)NC2CCC23CCN(C(=O)c2ccnnc2)CC3)c1` (stereo not given), for which the cytotoxicity at 70.5 h stood at 27.1%.

As for `CCc1nc2c(N3CCC4(CC3)CC(=O)N(CC)C4)ncnc2o1`, the cytotoxicity at 70.5 h is -1.14%. As to `CN(CCO)Cc1nnc(C2CCN(CC(C)(C)C)CC2)n1C`, the cytotoxicity at 70.5 h is -4.91%. Consider `CN(Cc1ccc(-n2ccnc2)cc1)Cc1ncc[nH]1`, for which the cytotoxicity at 70.5 h is -6.87%. The figure for `CC(=O)N[C@@H]1CN(S(=O)(=O)Cc2ccccc2)C[C@H]1C(C)C` is -0.553%; for `CCCc1cc(CNc2cc(CCC)nc3ccnn23)on1` it is 13.7%. As for `O=C(c1ccc(-n2cnnc2)cc1Cl)N1CCCC(O)(CO)CC1` (stereo not given), the cytotoxicity at 70.5 h turned out to be 15.6%. Next, `Cc1cnc(C)c(Oc2ccc(CN3CCCC3)cc2Cl)n1`: -4.06%. For `CN1CCCCC1c1nc(Cc2cccc(F)c2)no1` (stereo not given), the cytotoxicity at 70.5 h was -7.67%. The figure for `CC(=O)c1ccccc1NC(=O)CCN1CCSCC1` is 6.67%; for `OCC1(O)CCN(Cc2noc(-c3ccccc3)n2)CC1` it is -6.37%. Next, `c1ccc(Cc2noc(CCNC3CCOC4(CCOCC4)C3)n2)cc1` (stereo not given): 11.9%; `Cc1cnc(C)c(N2CCCC(CC3CC3)(C(=O)O)C2)n1` (stereo not given): -4.19%; `C1CCC(c2nc3c(c(N4CCN5CCCC5C4)n2)CCNCC3)C1` (stereo not given): -5.97%. For the molecule `CCN(CC)c1ncccc1CNCc1cc2ccccc2s1`, the cytotoxicity at 70.5 h is -2.63%. On to `CCCc1ccc(CN2CCN(C(=O)CC(C)C)[C@@H]3CS(=O)(=O)C[C@@H]32)o1`, for which the cytotoxicity at 70.5 h was -9.85%.

As to `COC(C)(C)C(=O)N1Cc2cnc(C(C)(C)C)nc2C1`, the cytotoxicity at 70.5 h is -13.3%. On to `Cc1ccc(N2CCC(c3cc(Cc4ccccc4)n[nH]3)CC2)nn1`, for which the cytotoxicity at 70.5 h is -9.6%. For `Cc1cnc(NC(=O)c2cccc(CN(C)Cc3ncccc3C)c2)s1`, the cytotoxicity at 70.5 h worked out at 8.51%. Next, `CC(=O)Nc1ccc2nc(CN(C)Cc3noc(C)n3)ccc2c1`: -4.56%; `Cc1nonc1-c1nc(C(C)C)nn1-c1ccc2c(c1)OCO2`: -3.15%.

With `CCN1CC2(CCN(C(=O)c3nc4cc(C)ccn4c3F)CC2)CC1=O`, the cytotoxicity at 70.5 h was 24.7%. Take `CC(Nc1nc(-c2ccccc2)nc2c1CCNCC2)c1cccnc1` (stereo not given): the cytotoxicity at 70.5 h stood at 2.48%. As for `CSCC(=O)N(C)Cc1cnn(-c2ccc(F)cc2)c1`, the cytotoxicity at 70.5 h was 3.1%. The figure for `CS(=O)(=O)N1CCC2(CC1)c1ccccc1[C@@H](N1CCSCC1)[C@@H]2O` is -0.762%; for `O=C(NCCn1cccc1)C(c1cccnc1)N1CCCC1` (stereo not given) it is -0.962%; for `N#Cc1cccc(N2CCC(CO)(CCc3ccccc3)CC2)n1` it is -5.51%. The figure for `CCCOCCNc1nc2c(s1)c(C)nn2C` is 24.8%; for `O=C1CC[C@H]2CN(c3ncccc3F)CC[C@H]2N1CCc1ccccc1` it is 17.3%. With `CN(Cc1cc[nH]n1)C(=O)C1CC(=O)N(Cc2ccncc2)C1` (stereo not given), the cytotoxicity at 70.5 h is -0.62%.

As to `CCC(=O)Nc1cccc(OCC(=O)N2C[C@H]3CC[C@H]2C3)c1`, the cytotoxicity at 70.5 h is -18.9%. For the molecule `COCCN(C)Cc1cn(C)nc1-c1ccc2c(c1)OCCO2`, the cytotoxicity at 70.5 h was -7.93%.

As for `Cc1ncc(CN(C)C2CCCN(CCc3ccccc3)C2)n1C` (stereo not given), the cytotoxicity at 70.5 h is -9.12%.

Turning to `COc1cccc(CN2CC(=O)N(c3ccccc3C)CC2C)c1OC` (stereo not given), the cytotoxicity at 70.5 h is -6.78%. Take `O=C(CSC(F)(F)F)N1CCC2(CCCN(C3CCOCC3)C2=O)C1` (stereo not given): the cytotoxicity at 70.5 h is 15%. Take `CCc1ccc(CN2CCCC(c3nn(C)c(=O)n3CC)C2)nc1` (stereo not given): the cytotoxicity at 70.5 h was -9.19%.

`CN(Cc1ccon1)C(=O)CN1C(=O)OC(C)(C)C1=O`: the cytotoxicity at 70.5 h is -11.5%.

Consider `CC(C)N1CCC(C(=O)NC[C@H]2CCc3ccccc3O2)CC1`, for which the cytotoxicity at 70.5 h is -17.4%.

As to `Cc1nc2ccccn2c1CN1C[C@@H](CN(C)CCO)[C@@H](CO)C1`, the cytotoxicity at 70.5 h was found to be 5.92%. Consider `CC(C)(C)c1cc(CN2C[C@@H]3CC[C@H](C2)N(Cc2ccccn2)C3)n[nH]1`, for which the cytotoxicity at 70.5 h was -9.78%.

With `CCN(CC)c1ncccc1CNC(=O)c1cnn(CC)c1`, the cytotoxicity at 70.5 h was -3.9%. Next, `O=C(C1CCOCC1)N1C[C@H]2CC[C@@H]1CN(Cc1ccncc1)C2`: -6.05%; `Cc1ccc(C2(O)CCN(C(=O)CCn3c(C)cccc3=O)CC2)nc1`: 27.8%. The figure for `CC(C)(O)CCc1cccc(C(=O)N2Cc3cnn(CCO)c3C2)c1` is -17.1%; for `COc1ccc(F)cc1-n1cnc(CCNC(C)=O)c1` it is 16.3%. The figure for `Cc1nccc(N2C[C@H](NC(=O)CNS(C)(=O)=O)[C@@H](C3CC3)C2)n1` is -5%. `Cc1cc(C(=O)N2CCCC(O)(CN3CCCC3)C2)ccc1Cl` (stereo not given): the cytotoxicity at 70.5 h was determined as 1.99%.

For the molecule `C[C@H](NC(=O)c1cnc(-c2ccccc2)nc1O)C(N)=O`, the cytotoxicity at 70.5 h is -7.97%. The figure for `Cc1ccc(O)c(CN2CCCCC2CCN2CCOCC2)c1` (stereo not given) is -7.89%; for `CCOCCn1nc(C)cc1C(=O)N1CC(C)(C)[C@@](C)(O)C1` it is -2.57%; for `CCc1nccc(CN2CCC(CNC(=O)Nc3ccccc3)C2)n1` (stereo not given) it is 18.8%. The figure for `COc1ccc2c(c1)OCC(Cc1ccc(N)nc1C)C2` (stereo not given) is -8.63%. Next, `FC(F)(F)CCc1ccnc(N2CCN(CCc3ccncc3)CC2)n1`: -6.22%; `COCCC1(C(=O)O)CCCN(C(=O)c2cc(F)ccc2OC)C1` (stereo not given): -10.6%; `CC(C)c1cc(C(=O)N2CCCC3(CCNC3)C2)no1` (stereo not given): -3.49%. For the molecule `Cc1ccnc(CC(C)N(C)c2cc(C3CCNCC3)nc(C)n2)c1` (stereo not given), the cytotoxicity at 70.5 h was -3%. As to `O=C1N(CCc2ccccc2)CCCC12CCN(C(CO)CO)C2` (stereo not given), the cytotoxicity at 70.5 h was -4.14%. Next, `Cn1cc(CN2CC[C@H](O)[C@@H]2Cc2ccccc2)cn1`: -0.0718%.

As to `Cc1ccc(CN2CC[C@@H](O)[C@@H]2Cc2cnn(C)c2)o1`, the cytotoxicity at 70.5 h is -10.4%. Next, `Cc1cc(C(=O)N2C[C@@H]3OCCN(CCN4CCCC4)[C@@H]3C2)c(C)o1`: -7.77%; `CCN1C[C@H]2C[C@H](C(=O)Nc3ccccc3)[C@@H](C1)O2`: 16.4%.

On to `O=C(c1cc[nH]n1)N1CCc2onc(COc3cccnc3)c2C1`, for which the cytotoxicity at 70.5 h was -6.72%. Take `CC(C)(C)CN1CCCC12CCN(S(=O)(=O)c1ccccc1)C2` (stereo not given): the cytotoxicity at 70.5 h is -2.83%. Turning to `CN1C(=O)C2(CCN(CC3CCC3)C2)c2ccccc21` (stereo not given), the cytotoxicity at 70.5 h was 9.83%. For the molecule `O=C(NCc1ccccc1)c1nc2c(o1)CN(C(=O)c1cccnc1)C2`, the cytotoxicity at 70.5 h was -9%. For the molecule `Cn1ccnc1CN1CC[C@@H](NS(C)(=O)=O)[C@@H]1Cc1ccccc1`, the cytotoxicity at 70.5 h was -10.6%.

For the molecule `CCC(CC)NC(=O)c1ncn2c1CN(CC)S(=O)(=O)c1ccccc1-2`, the cytotoxicity at 70.5 h was -12.8%. Next, `CC(C)CN1C(=O)C2(CCN(CC3CCOCC3)C2)c2ccccc21` (stereo not given): -3.07%; `CC(C)CS(=O)(=O)N1CCC2(CN(c3cccc(F)c3)C(=O)CN2C)C1` (stereo not given): 19.6%. As for `CC(C)OCc1ncn2c1CN(CC1CC1)CCC2`, the cytotoxicity at 70.5 h came out at 20.2%.

Regarding `CCOc1ncnc2c1CCN(Cc1csc(C)n1)CC2`, the cytotoxicity at 70.5 h is 18.8%.

As to `Cc1nc(CN2CCCn3cnc(COC(C)C)c3C2)cs1`, the cytotoxicity at 70.5 h is -2.95%. `O=C(c1ccsc1)N1C[C@@H]2OCCN(CCN3CCCC3)[C@@H]2C1`: the cytotoxicity at 70.5 h was found to be 16.6%. The figure for `Cn1cc(CN2CC[C@@H](NS(C)(=O)=O)[C@@H]2Cc2cccnc2)cn1` is -12.3%; for `COCC(=O)N1CCn2c(CN3CCN(C)CC3)cnc2C1` it is -3.31%.

Turning to `Cc1nc(CN2CCc3ncnc(-c4ccncc4)c3CC2)cs1`, the cytotoxicity at 70.5 h is 20%.
